Results published in patent US4703110A, “Benzoic acid derivatives having a para substituent which is a substituted phenyl group connected by a linking radical; useful in neoplastic cell differentiation and diagnosis” (Shudo; Koichi, priority 1984, dated 1987).

Experiments:
[1] = tested on: human acute promyelocytic leukemia cells (HL-60); test: Reduction of nitro-blue tetrazolium (NBT) by treated HL-60 cells; format: cell-based; details: HL-60, 5 days incubation, TPA 200 ng/ml, 0.1% NBT, 20 minutes at 37° C.
Procedure: The biochemical activity of cells treated with the compound was measured as follows:
The cells after 5 days incubation are centrifuged and diluted with RPMI-1640 medium supplemented with 5% fetal calf serum, to provide a definite number of the cells. To the diluted cell suspension are then added 200 ng/ml of […] (TPA) and the resulting culture medium is then incubated for 20 minutes at 37° C. in the presence of 0.1% of NBT. Thus, the mature differentiated cells containing blue-black formazan is counted by microscopy, so that the ratio of the cells having the ability to reduce NBT, to total cells, can be calculated.

[2] = tested on: human acute promyelocytic leukemia cells (HL-60); test: Differentiation of HL-60 cells, morphological changes of nuclei (Wright-Giemsa); format: cell-based; details: HL-60, 4 days; test concentration not stated
Procedure: The HL-60 cells are cultured in plastic flasks in RPMI-1640 medium supplemented with 5% heat inactivated fetal calf serum and antibiotics (penicillin G and streptomycin). The cells (3×10^4 /ml) were cultured with a compound of the present invention for 4 days. Growth inhibition of the cells by the test compounds was determined by counting the number of cells by microscope and relative ratio was examined by taking the number of cells by control (without test compound) as 100%. The cells are fixed and stained with Wright-Giemsa to examine the morphological changes of the nuclei.

[3] = tested on: HL-60 transplanted to nude mice; test: Treatment of nude mice transplanted with HL-60; format: in vivo, nude mouse (BALB/c, nu/nu); details: per os, 200 mg/kg/day, days 9, 14 and 17 after transplantation; measured 4, 6, 8 and 11 days after first administration
Procedure: A test of treatment of nude mice, to which HL-60 have been transplanted, with a compound of the present invention is performed as follows:
A test compound (e.g., p-(5,6,7,8-tetrahydro-5,5,8,8-tetramethyl-2-naphthylcarbamoyl)benzoic acid) is suspended in 10% (v/v) Tween 80 in a concentration of 10 mg/ml. Cells (5×10^7) of HL-60 were transplanted subcutaneously to a nude mouse (BALB/c, nu/nu female Nihon Clea).
At the end of days 9, 14 and 17 after the transplantation, 0.1 ml of the suspension per 10 g of body weight of mouse were administrated per os two times at intervals of 7 hours (200 mg/kg/day).

| SMILES | Reductivity of NBT [1] [%] | Banded and Segmented Neutrophils [2] [%] | Myelocytes and Metamyelocytes [2] [%] | Promyelocytes [2] [%] | Tumor growth [3] |
| --- | --- | --- | --- | --- | --- |
| CCc1ccc(C(=O)C=Cc2ccc(C(=O)OC)cc2)cc1CC [H Et Et H H OCH3 drawing 7] | 72 | 8 | 54 | 38 |  |
| COC(=O)c1ccc(C2OC2c2ccc3c(c2)C(C)(C)CCC3(C)C)cc1 (stereo not shown) [H drawing 10 H H OCH3 drawing 9] | 78 | 18 | 63 | 19 |  |
| COC(=O)c1ccc(C2OC2(C)c2ccc3c(c2)C(C)(C)CCC3(C)C)cc1 (stereo not shown) [H drawing 10 H H OCH3 drawing 11] | 81 | 9 | 79 | 12 |  |
| CC1(C)CCC(C)(C)c2cc([N+]([O-])=Nc3ccc(C(=O)O)cc3)ccc21 [H drawing 12 H H OH drawing 13] | 70 | 7 | 53 | 40 |  |
| COC(=O)c1ccc(C2OC2c2cccc(C(C)(C)C)c2)cc1 (stereo not shown) [H tBu H H H OCH3 drawing 9] | 70 | 9 | 69 | 20 |  |
| CC(C)(C)c1cc(C(=O)C=Cc2ccc(C(=O)O)cc2)cc(C(C)(C)C)c1 [No. 8] | 95 | 16 | 82 | 2 |  |
| CC(C)(C)c1ccc(C(=O)C=Cc2ccc(C(=O)O)cc2)cc1 [No. 9] | 68 | 6 | 48 | 46 |  |
| CC1(C)CCC(C)(C)c2cc(C(=O)C=Cc3ccc(C(=O)O)cc3)ccc21 [No. 11] | 95 | 12 | 86 | 2 |  |
| COC(=O)c1ccc(C=CC(=O)c2ccc3c(c2)C(C)(C)CCC3(C)C)cc1 [No. 13] | 97 | 4 | 91 | 5 |  |
| CC(C)c1ccc(NC(=O)c2ccc(C(=O)O)cc2)cc1C(C)C [No. 30] | 90 | 11 | 82 | 7 |  |
| COC(=O)c1ccc(C(=O)Nc2ccc3c(c2)C(C)(C)CCC3(C)C)cc1 [No. 34] | 97 | 12 | 85 | 3 |  |
| CC1(C)CCC(C)(C)c2cc(NC(=O)c3ccc(C(=O)O)cc3)ccc21 [No. 35, p-(5,6,7,8-tetrahydro-5,5,8,8-tetramethyl-2-naphthylcarbamoyl)benzoic acid] | 98 | 19 | 78 | 3 | tumor growth was clearly suppressed |
| CC(C)c1ccc(N=Nc2ccc(C(=O)O)cc2)cc1C(C)C [No. 50] | 55 | 11 | 50 | 39 |  |
| COC(=O)c1ccc(N=Nc2ccc3c(c2)C(C)(C)CCC3(C)C)cc1 [No. 57] | 60 | 10 | 49 | 41 |  |
| CC1=C(/C=C/C(C)=C/C=C/C(C)=C/C(=O)O)C(C)(C)CCC1 [Retinoic acid, reference compound] | 75 | 4 | 71 | 25 |  |
